PubChem BioAssay AID1918936 (Molecular Pharmacology Branch, DTP, NCI, 2023)
Values joined by “and” are separate entries in the source; they are usually repeats but may differ in a detail not shown here. Equal entries are not always repeated.

Test system: 349418-098-R-PDC complex spheroid viability
Assay: Anticancer human tumor 349418-098-R-PDC patient-derived lung adenocarcinoma cell line growth inhibition
Details: for viability, T/C: stronger effect = lower value
Outline: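 Multicellular complex spheroids of tumor cells with human endothelial cells (HUVEC) and mesenchymal stem cells; the LSD1 inhibitor iadademstat was combined with standard-of-care or investigational agents. Top concentration at or near clinical Cmax, half-log dilutions; final DMSO ≤0.25%.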

[1] = curve of first compound, second compound 0.1 µM
[2] = curve of first compound, second compound 0.316 µM
[3] = curve of first compound, second compound 1 µM
[4] = curve of first compound, second compound 3.16 µM
[5] = curve of first compound, second compound 10 µM
[6] = second compound 0.1 µM, first compound 0.000949 µM
[7] = second compound 0.1 µM, first compound 0.003 µM
[8] = second compound 0.1 µM, first compound 0.00949 µM
[9] = second compound 0.1 µM, first compound 0.03 µM
[10] = second compound 0.1 µM, first compound 0.0949 µM
[11] = second compound 0.1 µM, first compound 0.3 µM
[12] = second compound 0.316 µM, first compound 0.000949 µM
[13] = second compound 0.316 µM, first compound 0.003 µM
[14] = second compound 0.316 µM, first compound 0.00949 µM
[15] = second compound 0.316 µM, first compound 0.03 µM
[16] = second compound 0.316 µM, first compound 0.0949 µM
[17] = second compound 0.316 µM, first compound 0.3 µM
[18] = second compound 1 µM, first compound 0.000949 µM
[19] = second compound 1 µM, first compound 0.003 µM
[20] = second compound 1 µM, first compound 0.00949 µM
[21] = second compound 1 µM, first compound 0.03 µM
[22] = second compound 1 µM, first compound 0.0949 µM
[23] = second compound 1 µM, first compound 0.3 µM
[24] = second compound 3.16 µM, first compound 0.000949 µM
[25] = second compound 3.16 µM, first compound 0.003 µM
[26] = second compound 3.16 µM, first compound 0.00949 µM
[27] = second compound 3.16 µM, first compound 0.03 µM
[28] = second compound 3.16 µM, first compound 0.0949 µM
[29] = second compound 3.16 µM, first compound 0.3 µM
[30] = second compound 10 µM, first compound 0.000949 µM
[31] = second compound 10 µM, first compound 0.003 µM
[32] = second compound 10 µM, first compound 0.00949 µM
[33] = second compound 10 µM, first compound 0.03 µM
[34] = second compound 10 µM, first compound 0.0949 µM
[35] = second compound 10 µM, first compound 0.3 µM
[36] = second compound 0.1 µM, first compound 0.0316 µM
[37] = second compound 0.1 µM, first compound 0.1 µM
[38] = second compound 0.1 µM, first compound 0.316 µM
[39] = second compound 0.1 µM, first compound 1 µM
[40] = second compound 0.1 µM, first compound 3.16 µM
[41] = second compound 0.1 µM, first compound 10 µM
[42] = second compound 0.316 µM, first compound 0.0316 µM
[43] = second compound 0.316 µM, first compound 0.1 µM
[44] = second compound 0.316 µM, first compound 0.316 µM
[45] = second compound 0.316 µM, first compound 1 µM
[46] = second compound 0.316 µM, first compound 3.16 µM
[47] = second compound 0.316 µM, first compound 10 µM
[48] = second compound 1 µM, first compound 0.0316 µM
[49] = second compound 1 µM, first compound 0.1 µM
[50] = second compound 1 µM, first compound 0.316 µM
[51] = second compound 1 µM, first compound 1 µM
[52] = second compound 1 µM, first compound 3.16 µM
[53] = second compound 1 µM, first compound 10 µM
[54] = second compound 3.16 µM, first compound 0.0316 µM
[55] = second compound 3.16 µM, first compound 0.1 µM
[56] = second compound 3.16 µM, first compound 0.316 µM
[57] = second compound 3.16 µM, first compound 1 µM
[58] = second compound 3.16 µM, first compound 3.16 µM
[59] = second compound 3.16 µM, first compound 10 µM
[60] = second compound 10 µM, first compound 0.0316 µM
[61] = second compound 10 µM, first compound 0.1 µM
[62] = second compound 10 µM, first compound 0.316 µM
[63] = second compound 10 µM, first compound 1 µM
[64] = second compound 10 µM, first compound 3.16 µM
[65] = second compound 10 µM, first compound 10 µM
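Also: spheroids exposed to agents for seven days before readout.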
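For viability, T/C in this document: 100% = DMSO vehicle control wells.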

Nc1ccn(C2OC(CO)C(O)C2(F)F)c(=O)n1 (centres undefined) + NC1CCC(NC2CC2c2ccccc2)CC1
IC50 [1]: < 0.949 nM
IC50 [2]: < 0.949 nM
IC50 [3]: < 0.949 nM
IC50 [4]: < 0.949 nM
IC50 [5]: < 0.949 nM
viability, T/C [6]: 4.87%
viability, T/C [7]: 4.56%
viability, T/C [8]: 4.21%
viability, T/C [9]: 3.79%
viability, T/C [10]: 4%
viability, T/C [11]: 3.98%
viability, T/C [12]: 4.61%
viability, T/C [13]: 4.85%
viability, T/C [14]: 4.32%
viability, T/C [15]: 4.15%
viability, T/C [16]: 4.03%
viability, T/C [17]: 3.47%
viability, T/C [18]: 4.81%
viability, T/C [19]: 4.98%
viability, T/C [20]: 5.25%
viability, T/C [21]: 4.25%
viability, T/C [22]: 3.86%
viability, T/C [23]: 3.77%
viability, T/C [24]: 5.14%
viability, T/C [25]: 4.79%
viability, T/C [26]: 5.19%
viability, T/C [27]: 4.55%
viability, T/C [28]: 4.08%
viability, T/C [29]: 3.79%
viability, T/C [30]: 4.89%
viability, T/C [31]: 5.31%
viability, T/C [32]: 4.83%
viability, T/C [33]: 4.8%
viability, T/C [34]: 4.86%
viability, T/C [35]: 3.79%

CC(C)CC(NC(=O)CNC(=O)c1cc(Cl)ccc1Cl)B1OC(=O)CC(CC(=O)O)(C(=O)O)O1 (centres undefined)
viability, T/C (compound 0.000316 µM): 88.8% and 103%
viability, T/C (compound 0.001 µM): 24.5% and 38.9%
viability, T/C (compound 0.00316 µM): 4.47% and 4.31%
viability, T/C (compound 0.01 µM): 2.14% and 2%
viability, T/C (compound 0.0316 µM): 1.69% and 1.05%
viability, T/C (compound 0.1 µM): 1.35% and 1.12%
IC50 (curve of compound): 0.633 nM and 0.818 nM

CC1COCCN1c1cc(C2(S(C)(=N)=O)CC2)nc(-c2ccnc3[nH]ccc23)n1 (centres undefined) + NC1CC1c1ccc(-c2cccc(O)c2)cc1
IC50 [1]: 1050 nM
IC50 [2]: 1020 nM
IC50 [3]: 931 nM
IC50 [4]: 1070 nM
IC50 [5]: 709 nM
viability, T/C [36]: 114%
viability, T/C [37]: 113%
viability, T/C [38]: 111%
viability, T/C [39]: 51.8%
viability, T/C [40]: 11.8%
viability, T/C [41]: 10.9%
viability, T/C [42]: 120%
viability, T/C [43]: 111%
viability, T/C [44]: 104%
viability, T/C [45]: 51.2%
viability, T/C [46]: 11.5%
viability, T/C [47]: 9.93%
viability, T/C [48]: 115%
viability, T/C [49]: 116%
viability, T/C [50]: 115%
viability, T/C [51]: 45.6%
viability, T/C [52]: 13.9%
viability, T/C [53]: 10.7%
viability, T/C [54]: 118%
viability, T/C [55]: 103%
viability, T/C [56]: 115%
viability, T/C [57]: 52.3%
viability, T/C [58]: 13.3%
viability, T/C [59]: 9.27%
viability, T/C [60]: 91.3%
viability, T/C [61]: 94.1%
viability, T/C [62]: 86.6%
viability, T/C [63]: 34.3%
viability, T/C [64]: 11.2%
viability, T/C [65]: 6.83%

CC[C@@]1(O)C(=O)OCc2c1cc1n(c2=O)Cc2cc3c(CN(C)C)c(O)ccc3nc2-1
viability, T/C (compound 0.000316 µM): 105% and 95.3%
viability, T/C (compound 0.001 µM): 84.7% and 94.4%
viability, T/C (compound 0.00316 µM): 32.5% and 43.5%
viability, T/C (compound 0.01 µM): 10.2% and 9.41%
viability, T/C (compound 0.0316 µM): 6.03% and 5.47%
viability, T/C (compound 0.1 µM): 3.25% and 3.14%
IC50 (curve of compound): 2.16 nM and 2.74 nM

CCc1c2c(nc3ccc(O)cc13)-c1cc3c(c(=O)n1C2)COC(=O)[C@]3(O)CC + NC1CC1c1ccc(-c2cccc(O)c2)cc1
IC50 [1]: < 0.949 nM
IC50 [2]: < 0.949 nM
IC50 [3]: < 0.949 nM
IC50 [4]: < 0.949 nM
IC50 [5]: < 0.949 nM
viability, T/C [6]: 3.35%
viability, T/C [7]: 2.46%
viability, T/C [8]: 1.32%
viability, T/C [9]: 1.41%
viability, T/C [10]: 1.92%
viability, T/C [11]: 1.96%
viability, T/C [12]: 3.19%
viability, T/C [13]: 2.09%
viability, T/C [14]: 1.26%
viability, T/C [15]: 1.31%
viability, T/C [16]: 1.59%
viability, T/C [17]: 1.98%
viability, T/C [18]: 3.23%
viability, T/C [19]: 2.09%
viability, T/C [20]: 1.23%
viability, T/C [21]: 1.48%
viability, T/C [22]: 1.67%
viability, T/C [23]: 1.92%
viability, T/C [24]: 3.45%
viability, T/C [25]: 2.17%
viability, T/C [26]: 1.37%
viability, T/C [27]: 1.52%
viability, T/C [28]: 1.8%
viability, T/C [29]: 1.56%
viability, T/C [30]: 3.42%
viability, T/C [31]: 1.99%
viability, T/C [32]: 1.52%
viability, T/C [33]: 1.31%
viability, T/C [34]: 1.59%
viability, T/C [35]: 1.47%

CC1COCCN1c1cc(C2(S(C)(=N)=O)CC2)nc(-c2ccnc3[nH]ccc23)n1 (centres undefined) + NC1CCC(NC2CC2c2ccccc2)CC1
IC50 [1]: 371 nM
IC50 [2]: 508 nM
IC50 [3]: 487 nM
IC50 [4]: 361 nM
IC50 [5]: 433 nM
viability, T/C [36]: 115%
viability, T/C [37]: 115%
viability, T/C [38]: 55.5%
viability, T/C [39]: 16.1%
viability, T/C [40]: 11%
viability, T/C [41]: 8.02%
viability, T/C [42]: 120%
viability, T/C [43]: 101%
viability, T/C [44]: 72.5%
viability, T/C [45]: 19.6%
viability, T/C [46]: 9.52%
viability, T/C [47]: 8.34%
viability, T/C [48]: 114%
viability, T/C [49]: 104%
viability, T/C [50]: 68.6%
viability, T/C [51]: 19.2%
viability, T/C [52]: 10.2%
viability, T/C [53]: 7.6%
viability, T/C [54]: 116%
viability, T/C [55]: 113%
viability, T/C [56]: 53.6%
viability, T/C [57]: 18.1%
viability, T/C [58]: 10.3%
viability, T/C [59]: 7.61%
viability, T/C [60]: 107%
viability, T/C [61]: 87.3%
viability, T/C [62]: 65.7%
viability, T/C [63]: 15.8%
viability, T/C [64]: 9.23%
viability, T/C [65]: 5.82%
